This note sets out measurements from patent US9758538B2, “Pyrimidine derivatives” (PFIZER INC., priority 2015, dated 2017).

The structures appear in SMILES notation.

Chain of truncated PI3Kα (p110α/iSH2 p85α), PI3KA_Act (P42336 whole entry, the tested form may be a part): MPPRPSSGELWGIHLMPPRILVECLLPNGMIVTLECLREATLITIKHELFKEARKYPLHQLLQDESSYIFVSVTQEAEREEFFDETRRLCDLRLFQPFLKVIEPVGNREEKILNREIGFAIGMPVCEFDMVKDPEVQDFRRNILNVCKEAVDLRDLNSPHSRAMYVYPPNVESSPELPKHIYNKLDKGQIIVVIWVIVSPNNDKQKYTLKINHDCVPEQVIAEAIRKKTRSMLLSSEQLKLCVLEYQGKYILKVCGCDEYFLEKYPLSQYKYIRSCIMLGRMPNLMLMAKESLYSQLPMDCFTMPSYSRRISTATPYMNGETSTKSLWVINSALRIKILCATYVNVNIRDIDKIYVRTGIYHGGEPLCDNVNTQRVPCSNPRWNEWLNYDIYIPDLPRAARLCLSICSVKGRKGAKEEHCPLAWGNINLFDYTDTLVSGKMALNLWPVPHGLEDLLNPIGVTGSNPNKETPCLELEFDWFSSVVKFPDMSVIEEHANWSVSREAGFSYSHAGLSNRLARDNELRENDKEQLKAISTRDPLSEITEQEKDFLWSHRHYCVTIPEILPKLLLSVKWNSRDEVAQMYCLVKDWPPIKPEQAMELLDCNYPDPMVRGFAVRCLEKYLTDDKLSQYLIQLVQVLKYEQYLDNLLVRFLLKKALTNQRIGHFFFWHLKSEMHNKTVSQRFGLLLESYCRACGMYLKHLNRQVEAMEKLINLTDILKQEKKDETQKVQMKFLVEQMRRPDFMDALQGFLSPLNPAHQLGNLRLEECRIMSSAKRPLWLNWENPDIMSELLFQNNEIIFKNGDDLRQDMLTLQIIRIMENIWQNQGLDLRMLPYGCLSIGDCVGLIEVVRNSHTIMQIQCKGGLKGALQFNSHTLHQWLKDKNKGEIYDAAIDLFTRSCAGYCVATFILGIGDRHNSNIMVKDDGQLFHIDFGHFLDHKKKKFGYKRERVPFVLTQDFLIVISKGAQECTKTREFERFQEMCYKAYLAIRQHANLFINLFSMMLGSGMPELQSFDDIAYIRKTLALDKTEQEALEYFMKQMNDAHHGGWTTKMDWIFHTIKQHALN

The first assay deals with truncated PI3Kα (p110α/iSH2 p85α), PI3KA_Act (Homo sapiens (Human), UniProt P42336). The assay can be described thus: PI3Kα biochemical kinase assay, fluorescence polarization format (PI3KA_Act). Particulars: 0.5 nM p110α/iSH2 p85, 1 mM ATP, 30 μM PIP2, 15-min preincubation; Morrison equation fit; read-out: PI3KA_Act Ki. As for the experimental part:
Enzyme Production for Biochemical Assay: p110α-iSH2 p85α Complex (Full Length p110α and p85α iSH2)(“PI3KA Act”)
Gene encoding p110α subunit was subcloned into polyhedrine promoter while gene encoding p85α niSH2 domains was subcloned into p10 promoter. […] Recombinant baculovirus was generated using Bac-to-Bac protocol (Life Technologies, Carlsbad, Calif.). Large scale expression was conducted in Sf21 (Life Technologies, Carlsbad, Calif.) cells at a multiplicity of infection (“MOI”)=1 for 48 hours. Cells were lyzed in 50 mM Tris pH 8.0, 250 mM NaCl, 5% glycerol, 0.25 mM TCEP, and 20 mM imidazole. The p110α-niSH2 p85α complex was purified from clarified supernatant using Immobilized Metalo Affinity Chromatography (“IMAC”). The protein was eluted from the column using 50 mM Tris pH 8.0, 200 mM NaCl, 0.25 mM TCEP, and 200 mM imidazole. Following elution p110α-niSH2 p85α complex was dialyzed against 4 liters of 50 mM Tris pH 8.0, 200 mM NaCl, 0.25 mM TCEP, and 40 mM imidazole in the presence of PreScission Protease (1:70 molar ratio of Protease to Protein) and TEV protease (1:40 molar ratio protease to protein) for 16 hours at 4° C. The protein was further purified using reverse IMAC to remove cleaved histidine tag and contaminants captured during initial IMAC purification. The mixture of p110α-iSH2 p85α complex and cleaved nSH2 was recovered in reverse IMAC 40 mM imidazole flow through and 60 mM imidazole wash fractions. Those fractions were pulled together and loaded on Superdex 200 26/60 SEC column equilibrated in 25 mM Tris, pH 8.0, 100 mM NaCl, 2% glycerol, and 2 mM TCEP.
The enzymatic reactions were conducted in 50 μL volumes in 96-well plates. […] The reactions were incubated for 30 min at room temperature, stopped with EDTA pH 8 (10 mM final concentration). […] The plate was shaken for 30 minutes and fluorescence polarization values were measured on an LJL Analyst HT plate reader (Molecular Devices, Sunnyvale, Calif.).
(In general: Polarisation of emitted light reports the rotation of a fluorescent probe.)
Take `CN1CCCC(N2CC[C@](CO)(Nc3cc(-c4cnc(N)nc4)nc(N4CCOCC4)n3)C2)C1=O` (stereo partly drawn) [Example 84, 3-[(3S)-3-{[2′-amino-2-(morpholin-4-yl)-4,5′-bipyrimidin-6-yl]amino}-3-(hydroxymethyl)pyrrolidin-1-yl]-1-methylpiperidin-2-one]: the Ki – broadly, the equilibrium dissociation constant of an inhibitor or competing ligand from its target – worked out at 0.445 nM.

Regarding `CCOC(=O)N1CC[C@](CO)(Nc2cc(-c3cnc(C)nc3)nc(N3CCOCC3)n2)C1` [Example 130, ethyl (3S)-3-(hydroxymethyl)-3-{[2′-methyl-2-(morpholin-4-yl)-4,5′-bipyrimidin-6-yl]amino}pyrrolidine-1-carboxylate], the Ki is 0.83 nM.

In the case of `C[C@H]1COCCN1c1nc(N[C@@]2(CO)CCNC2)c(F)c(-c2cnc(N)nc2)n1` [Example 112, [(3S)-3-({2′-amino-5-fluoro-2-[(3S)-3-methylmorpholin-4-yl]-4,5′-bipyrimidin-6-yl}amino)pyrrolidin-3-yl]methanol], the Ki stood at 1.01 nM.

With `Nc1ncc(-c2cc(N[C@@]3(CO)CCN(C(=O)C4CC4)C3)nc(N3CCOCC3)n2)cn1` [Example 92, [(3S)-3-{[2′-amino-2-(morpholin-4-yl)-4,5′-bipyrimidin-6-yl]amino}-3-(hydroxymethyl)pyrrolidin-1-yl](cyclopropyl)methanone], the Ki is under 0.018 nM.

Turning to `COC(=O)N1CCCC(CO)(Nc2cc(-c3cnc(N)nc3)nc(N3CCOCC3)n2)C1` (racemic) [Example 4, methyl 3-{[2′-amino-2-(morpholin-4-yl)-4,5′-bipyrimidin-6-yl]amino}-3-(hydroxymethyl)piperidine-1-carboxylate], the inhibition constant Ki worked out at 0.03 nM.

For the compound `CC(=O)N1CCC[C@@](CO)(Nc2nc(N3CCOCC3)nc(-c3cnc(N)nc3)c2F)C1` [Example 152, 1-[(3R)-3-{[2′-amino-5-fluoro-2-(morpholin-4-yl)-4,5′-bipyrimidin-6-yl]amino}-3-(hydroxymethyl)piperidin-1-yl]ethanone], the Ki is 1.65 nM.

For `COC(=O)N1CCC[C@](CO)(Nc2nc(N3CCOCC3)nc(-c3cnc(N)nc3)c2F)C1` [Example 154, methyl (3S)-3-{[2′-amino-5-fluoro-2-(morpholin-4-yl)-4,5′-bipyrimidin-6-yl]amino}-3-(hydroxymethyl)piperidine-1-carboxylate], the Ki was under 0.018 nM.

Turning to `CS(=O)(=O)N1CC[C@](CO)(Nc2cc(-c3cnc(N)nc3)nc(N3CCOCC3)n2)C1` [Example 33, [(3S)-3-{[2′-amino-2-(morpholin-4-yl)-4,5′-bipyrimidin-6-yl]amino}-1-(methylsulfonyl)pyrrolidin-3-yl]methanol], the inhibition constant (Ki) worked out at 0.3 nM.

As to `Nc1ncc(-c2nc(N3CCOCC3)nc(N[C@@]3(CO)CCN(C(=O)NCC(F)F)C3)c2F)cn1` [Example 132, (3S)-3-{[2′-amino-5-fluoro-2-(morpholin-4-yl)-4,5′-bipyrimidin-6-yl]amino}-N-(2,2-difluoroethyl)-3-(hydroxymethyl)pyrrolidine-1-carboxamide], the Ki turned out to be 0.097 nM.

As for `C[C@H]1COCCN1c1nc(N[C@@]2(C)CCN(C(=O)OC(C)(C)C)C2)cc(-c2cnc(N)nc2)n1` [Example 19, tert-butyl (3S)-3-({2′-amino-2-[(3S)-3-methylmorpholin-4-yl]-4,5′-bipyrimidin-6-yl}amino)-3-methylpyrrolidine-1-carboxylate], the inhibition constant Ki was 0.158 nM.

With `CCCOC(=O)N1CC[C@](CO)(Nc2cc(-c3cnc(N)nc3)nc(N3CCOCC3)n2)C1` [Example 77, propyl (3S)-3-{[2′-amino-2-(morpholin-4-yl)-4,5′-bipyrimidin-6-yl]amino}-3-(hydroxymethyl)pyrrolidine-1-carboxylate], the inhibition constant (Ki) was under 0.018 nM.

In the case of `C[C@H]1COCCN1c1nc(N[C@@]2(CO)CCN(C(=O)OC3CC3)C2)cc(-c2cnc(N)nc2)n1` [Example 102, cyclopropyl (3S)-3-({2′-amino-2-[(3S)-3-methylmorpholin-4-yl]-4,5′-bipyrimidin-6-yl}amino)-3-(hydroxymethyl)pyrrolidine-1-carboxylate], the inhibition constant Ki was under 0.018 nM.

`Nc1ncc(-c2nc(N3CCOCC3)nc(N[C@@]3(CO)CCN(C(=O)OC4CC4)C3)c2F)cn1` [Example 101, cyclopropyl (3S)-3-{[2′-amino-5-fluoro-2-(morpholin-4-yl)-4,5′-bipyrimidin-6-yl]amino}-3-(hydroxymethyl)pyrrolidine-1-carboxylate]: the Ki turned out to be 0.068 nM.

Turning to `Nc1ncc(-c2nc(N3CCOCC3)nc(N[C@@]3(CO)CCCN(C(=O)OCC(F)F)C3)c2F)cn1` [Example 149, 2,2-difluoroethyl (3S)-3-{[2′-amino-5-fluoro-2-(morpholin-4-yl)-4,5′-bipyrimidin-6-yl]amino}-3-(hydroxymethyl)piperidine-1-carboxylate], the Ki was under 0.018 nM.

Take `COCC(=O)N1CCC[C@](CO)(Nc2nc(N3CCOCC3)nc(-c3cnc(N)nc3)c2F)C1` [Example 150, 1-[(3S)-3-{[2′-amino-5-fluoro-2-(morpholin-4-yl)-4,5′-bipyrimidin-6-yl]amino}-3-(hydroxymethyl)piperidin-1-yl]-2-methoxyethanone]: the Ki was 0.8 nM.

As to `C[C@H]1COCCN1c1nc(NC2(CO)CN(C(=O)OC(C)(C)C)C2)cc(-c2cnc(N)nc2)n1` [Example 49, tert-butyl 3-({2′-amino-2-[(3S)-3-methylmorpholin-4-yl]-4,5′-bipyrimidin-6-yl}amino)-3-(hydroxymethyl)azetidine-1-carboxylate], the Ki worked out at 0.083 nM.

As for `CC(=O)N1CC[C@](CO)(Nc2cc(-c3cnc(N)nc3)nc(N3CCOCC3)n2)C1` [Example 32, 1-[(3S)-3-{[2′-amino-2-(morpholin-4-yl)-4,5′-bipyrimidin-6-yl]amino}-3-(hydroxymethyl)pyrrolidin-1-yl]ethanone], the Ki worked out at 0.771 nM.

For `C[C@H]1COCCN1c1nc(N[C@@]2(CO)CCN(C(=O)OC3CC3)C2)c(F)c(-c2cnc(N)nc2)n1` [Example 117, cyclopropyl (3S)-3-({2′-amino-5-fluoro-2-[(3S)-3-methylmorpholin-4-yl]-4,5′-bipyrimidin-6-yl}amino)-3-(hydroxymethyl)pyrrolidine-1-carboxylate], the Ki was under 0.018 nM.

`COC(=O)N1CCC[C@@](CO)(Nc2nc(N3CCOCC3)nc(-c3cnc(N)nc3)c2F)C1` [Example 155, methyl (3R)-3-{[2′-amino-5-fluoro-2-(morpholin-4-yl)-4,5′-bipyrimidin-6-yl]amino}-3-(hydroxymethyl)piperidine-1-carboxylate]: the Ki worked out at 3.07 nM.

Regarding `C[C@H]1COCCN1c1nc(N[C@@]2(CO)CCN(C(=O)C3CC3)C2)c(F)c(-c2cnc(N)nc2)n1` [Example 120, [(3S)-3-({2′-amino-5-fluoro-2-[(3S)-3-methylmorpholin-4-yl]-4,5′-bipyrimidin-6-yl}amino)-3-(hydroxymethyl)pyrrolidin-1-yl](cyclopropyl)methanone], the Ki was under 0.018 nM.

Regarding `CCOC(=O)N1CC[C@](CO)(Nc2cc(-c3cnc(N)nc3)nc(N3CCOC[C@@H]3C)n2)C1` [Example 64, ethyl (3S)-3-({2′-amino-2-[(3S)-3-methylmorpholin-4-yl]-4,5′-bipyrimidin-6-yl}amino)-3-(hydroxymethyl)pyrrolidine-1-carboxylate], the Ki is under 0.018 nM.

Regarding `CC(C)OC(=O)N1CC[C@](CO)(Nc2nc(N3CCOCC3)nc(-c3cnc(N)nc3)c2F)C1` [Example 70, propan-2-yl (3S)-3-{[2′-amino-5-fluoro-2-(morpholin-4-yl)-4,5′-bipyrimidin-6-yl]amino}-3-(hydroxymethyl)pyrrolidine-1-carboxylate], the inhibition constant Ki came out at 0.031 nM.

As for `Nc1ncc(-c2nc(N3CCOCC3)nc(N[C@@]3(CO)CCN(C(=O)OCCF)C3)c2F)cn1` [Example 139, 2-fluoroethyl (3S)-3-{[2′-amino-5-fluoro-2-(morpholin-4-yl)-4,5′-bipyrimidin-6-yl]amino}-3-(hydroxymethyl)pyrrolidine-1-carboxylate], the inhibition constant (Ki) is under 0.018 nM.

As to `CC(=O)N1CCC[C@](CO)(Nc2nc(N3CCOCC3)nc(-c3cnc(N)nc3)c2F)C1` [Example 153, 1-[(3S)-3-{[2′-amino-5-fluoro-2-(morpholin-4-yl)-4,5′-bipyrimidin-6-yl]amino}-3-(hydroxymethyl)piperidin-1-yl]ethanone], the Ki came to 0.849 nM.

The same assay, now with this note: PI3KA_Act Ki (nM), 0.5 nM p110α/iSH2 p85, 1 mM ATP, 30 μM PIP2, 15-min preincubation; Morrison equation fit.
With `Nc1ncc(-c2nc(N3CCOCC3)nc(N[C@@]3(CO)CCN(C(=O)OCC(F)(F)F)C3)c2F)cn1` [Example 140, 2,2,2-trifluoroethyl (3S)-3-{[2′-amino-5-fluoro-2-(morpholin-4-yl)-4,5′-bipyrimidin-6-yl]amino}-3-(hydroxymethyl)pyrrolidine-1-carboxylate], the inhibitory constant (Ki) was under 0.018 nM.
